From US9499862B2, “Phospholinked dye analogs with an amino acid linker” (Pacific Biosciences of California, Inc., priority 2010, dated 2016)

Tested on: DNA polymerase
Conditions: for 2SS characteristics: two slow step character, equals K1/K2; for K1 (S-1) / K2 (S-1): two slow step results, single molecule DNA sequencing, cyanine dye conjugate
Description: In some cases, the system will have four kinetically observable (slow) reaction steps, two slow steps in a bright phase and two slow steps in a dark phase.

| Structure (SMILES) | 2SS characteristics | K1 (S-1) | K2 (S-1) |
| --- | --- | --- | --- |
| CC1(C)C(/C=C/C=C/C=C2/N(CCCCCC(=O)NC(CCCCN)C(=O)NC(CCCCN)C(=O)NCCCCCCOP(=O)(O)OP(=O)(O)OP(=O)(O)OC[C@H]3O[C@@H](n4ccc(N)nc4=O)CC3O)c3ccc4c(S(=O)(=O)O)cc(S(=O)(=O)O)cc4c3C2(C)C)=[N+](CCCS(=O)(=O)[O-])c2ccc3c(S(=O)(=O)O)cc(S(=O)(=O)O)cc3c21 (stereo partly drawn) [2Lys-tri-phosphate] | 6.5 | 2.645 | 0.406 |
| CC1(C)C(/C=C/C=C/C=C2/N(CCCCCC(=O)NC(CCC(=O)O)C(=O)NC(CCC(=O)O)C(=O)NCCCCCCOP(=O)(O)OP(=O)(O)OP(=O)(O)OC[C@H]3O[C@@H](n4ccc(N)nc4=O)CC3O)c3ccc4c(S(=O)(=O)O)cc(S(=O)(=O)O)cc4c3C2(C)C)=[N+](CCCS(=O)(=O)[O-])c2ccc3c(S(=O)(=O)O)cc(S(=O)(=O)O)cc3c21 (stereo partly drawn) [2Glu-tri-phosphate] | 7.3 | 7.898 | 1.082 |
